The record followed here is patent US9981918B2, “Kynurenine-3-monooxygenase inhibitors, pharmaceutical compositions, and methods of use thereof” (CHDI Foundation, Inc., priority 2011, dated 2018).

This test relates to KMO. Nature of the test: KMO inhibition: L-Kynurenine hydroxylation to 3-Hydroxy-Kynurenine monitored by LC/MS. The test is classed as biochemical. The settings on record: compound at 10 uM; footnote: some portion of activity of amides may be due to contribution of acid precursor. The procedure:
A generalized procedure for monitoring L-Kynurenine (KYN) hydroxylation to form product 3-Hydroxy-Kynurenine (30H-KYN) by LC/MS is described below. Product is quantified by multiple reaction monitoring using MS.
A method of monitoring L-Kynurenine (KYN) hydroxylation to form product 3-Hydroxy-Kynurenine (30H-KYN) by LC/MS is described below. Product is quantified by multiple reaction monitoring.
• Compound: Stock concentrations: 10 mM in 100% DMSO • Enzyme: KMO enzyme prepared at Evotec via mitochondria isolation from CHO-GST HIS KMO cells • Substrate: L-Kynurenine (Sigma: Cat# K3750) • [stock concentration: 10 mM in 100 mM potassium phosphate buffer, pH 7.4]
A method of monitoring L-Kynurenine (KYN) hydroxylation to form 3-Hydroxy-Kynurenine (30H-KYN) by LC/MS is described. Product is quantified by multiple reaction monitoring (MRM method).
For the molecule `O=C(O)c1cc(-c2cc(Cl)c3c(c2)CCO3)ncn1` [6-(7-chloro-2,3-dihydro-1-benzofuran-5-yl)pyrimidine-4-carboxylic acid], the “% Inhibition at 10 uM*” value is recorded as 102%.
For `O=C(O)c1cc(-c2cc(Cl)c3nccnc3c2)ncn1` [6-(8-chloroquinoxalin-6-yl)pyrimidine-4-carboxylic acid], the “% Inhibition at 10 uM*” value was 102%.
In the case of `CCC(C)Oc1ccc(-c2ccnc(C(=O)O)c2)cc1Cl` (stereo in doubt) it was 50%.
Next, `COCc1ccc(-c2cc(C(=O)O)ncn2)cc1Cl` [6-[3-chloro-4-(methoxymethyl)phenyl]pyrimidine-4-carboxylic acid]: 105%; `CCC(C)Oc1ccc(-c2cc(C(=O)O)ncn2)cc1Cl` (stereo in doubt) [6-(4-(S)-sec-Butoxy-3-chloro-phenyl)-pyrimidine-4-carboxylic acid]: 100%.

One may read the % Inhibition as the drop in the measured response relative to a control, in per cent.
